Tests used:
[1] = tested on: SOCE (store operated calcium entry) in CHO cells; test: Assay of SOCE (store operated calcium entry)-inhibiting action; type: cell-based, Chinese hamster; conditions: CHO cells, thapsigargin; for inhibition at 10 µM / inhibition at 30 µM / inhibition at 100 µM: Cricetulus griseus, CHO, read-out: SOCE level (percentage of inhibition)
Protocol: The extracellular fluid (i.e., medium) of cultured Chinese hamster ovary (CHO) cells was replaced by BSS containing no calcium. One minute later, a test compound was added. Two minutes later, 1 μM thapsigargin was added to cause depletion of the intracellular calcium store. Nine minutes later, calcium chloride (final concentration: 2 mM) was added to the extracellular fluid. The SOCE-inhibiting action levels at different compound concentrations after the addition of calcium chloride were determined as the percentage of inhibition (%) by evaluating the influence of the compound on the degree of increase in the intracellular calcium concentration.
(§1) Hereafter, the numerals in parentheses written after the TG level, the SOCE level, and the IICR level correspond to the test compound concentrations. The number following the name of each title compound used in the Examples below represents a compound ID number designated arbitrarily by the present inventors.

[2] = tested on: IICR (IP3 induced calcium release) in CHO cells; test: Assay of IICR (IP3 induced calcium release)-inhibiting action; type: cell-based, Chinese hamster; conditions: CHO cells, 10 μM ATP; for inhibition at 10 µM / inhibition at 30 µM / inhibition at 100 µM: Cricetulus griseus, CHO, read-out: IICR level (percentage of inhibition); for inhibition at 30 µM: test compound 30 μmol; for inhibition at 100 µM: test compound 100 μmol
Protocol: The extracellular fluid (i.e., medium) of cultured CHO cells was replaced by BSS containing calcium. One minute later, a test compound was added. Two minutes later, 10 μM ATP was added. The IICR-inhibiting action levels at different compound concentrations after the addition of ATP were determined as the percentage of inhibition (%) by evaluating the influence of the compound on the degree of increase in the intracellular calcium concentration.
as §1

| SMILES | inhibition at 10 µM ([1]; test compound 10 μmol) [%] | inhibition at 30 µM ([1]; test compound 30 μmol) [%] | inhibition at 100 µM ([1]; test compound 100 μmol) [%] | inhibition at 10 µM ([2]; test compound 10 μmol) [%] | inhibition at 30 µM [2] [%] | inhibition at 100 µM [2] [%] | SOCE level (percentage of inhibition) ([1]; test compound 10 μmol) [%] | SOCE level (percentage of inhibition) ([1]; test compound 30 μmol) [%] | SOCE level (percentage of inhibition) ([1]; test compound 100 μmol) [%] | IICR level (percentage of inhibition) ([2]; test compound 10 μmol) [%] |
| --- | --- | --- | --- | --- | --- | --- | --- | --- | --- | --- |
| CC(C)(C)N(CCO)CCC(=O)c1ccncc1 [Example 30, 2-(N-t-butyl-2-hydroxyethyl)aminoethyl-4-pyridylketone] | 0 | 0 | 0 | 20 | 10 | 10 | – | – | – | – |
| CN(CCC(=O)c1ccncc1)Cc1ccccc1 [Example 31, 2-(N-methylbenzyl)aminoethyl-4-pyridylketone] | 0 | 0 | 0 | 40 | 60 | 80 | – | – | – | – |
| CCCCN(CCO)CCC(=O)c1ccncc1 [Example 51, 2-(N-hydroxyethylbutyl)aminoethyl-4-pyridylketone] | 0 | 0 | 0 | 0 | 20 | 100 | – | – | – | – |
| CC(C)N(CCO)CCC(=O)c1ccsc1 [Example 56, 2-(hydroxyethylisopropyl)aminoethyl-3-thiophenylketone] | 0 | 0 | 0 | 0 | 0 | 50 | – | – | – | – |
| CC(C)N(CCC(=O)c1ccc(Cc2ccccc2)cc1)Cc1ccccc1 [Example 64, 2-(N-isopropylbenzyl)aminoethyl-4-benzylphenylketone] | – | – | – | – | 70 | 96 | 0 | 0 | 30 | 50 |
| Cc1ccc(C(=O)CCN(Cc2ccccc2)C(C)C)cc1 [Example 65, 2-(N-isopropylbenzyl)aminoethyl-4-methylphenylketone] | 0 | 0 | 30 | 30 | 10 | 30 | – | – | – | – |
| CC(C)N(CCC(=O)c1ccc2ccccc2c1)Cc1ccccc1 [Example 66, 2-(N-isopropylbenzyl)aminoethyl-2-naphthylketone] | 0 | 0 | 0 | 10 | 10 | 70 | – | – | – | – |
| C=CC(=O)c1cccc2ccccc12 [Example 68, 1-acryloylnaphthalene] | 0 | 10 | 70 | 80 | 90 | 95 | – | – | – | – |
| CC(C)N(CCC(=O)c1ccccc1)Cc1ccccc1 [Example 69, 2-(isopropylbenzyl)aminoethylphenylketone] | 0 | 10 | 20 | 20 | 20 | 90 | – | – | – | – |
| O=C(CCN(c1ccccc1)c1ccccc1)c1cccc2ccccc12 [Example 70, 2-N-diphenylaminoethyl naphthylketone] | 0 | 10 | 20 | 10 | 0 | 40 | – | – | – | – |
| CN(CCC(=O)c1ccc2ccccc2c1)Cc1ccccc1 [Example 71, 2-(N-methylbenzyl)aminoethyl naphthylketone] | 0 | 0 | – | 0 | – | – | – | – | – | – |
| COc1ccc(C(=O)CCN(Cc2ccccc2)C(C)C)cc1 [Example 72, 2-(N-isopropylbenzyl)aminoethyl-4-methoxyphenylketone] | 0 | 10 | 20 | 20 | 20 | 70 | – | – | – | – |
| CC(C)N(CCC(=O)c1ccccn1)Cc1ccccc1 [Example 73, 2-(N-isopropylbenzyl)aminoethyl-2-pyridylketone] | 0 | 0 | 10 | 70 | 100 | 90 | – | – | – | – |
| CN(CCC(=O)c1cccc2ccccc12)Cc1ccccc1 [Example 74, 2-(N-methylbenzyl)aminoethyl-1-naphthylketone] | 0 | 10 | 30 | 30 | 50 | 70 | – | – | – | – |
| O=C(CCN(c1ccccc1)c1ccccc1)c1ccc2ccccc2c1 [Example 75, 2-(N-diphenyl)aminoethyl-2-naphthylketone] | 0 | 0 | 0 | 0 | 0 | 0 | – | – | – | – |
| COc1ccc(C(=O)CCN(C)Cc2ccccc2)cc1 [Example 76, 2-(N-methylbenzyl)aminoethyl-4-methoxyphenylketone] | 0 | 10 | 20 | 0 | 10 | 30 | – | – | – | – |
| CN(CCC(=O)c1ccccn1)Cc1ccccc1 [Example 77, 2-(N-methylbenzyl)aminoethyl-2-pyridylketone] | 0 | 20 | 30 | 0 | 10 | 30 | – | – | – | – |
| Cc1cccc2cc(C(=O)CCN(C)Cc3ccccc3)ccc12 [Example 78, 2-(N-methylbenzyl)aminoethyl-5-methyl-2-naphthylketone] | 10 | 20 | 50 | 20 | 70 | 90 | – | – | – | – |
| Cc1cccc2cc(C(=O)CCN(Cc3ccccc3)C(C)C)ccc12 [Example 79, 2-(N-isopropylbenzyl)aminoethyl-5-methyl-2-naphthylketone] | 10 | 30 | 70 | 70 | 90 | 90 | – | – | – | – |
| Cc1cccc2cc(C(=O)CCN(c3ccccc3)c3ccccc3)ccc12 [Example 80, 2-(N-diphenyl)aminoethyl-5-methyl-2-naphthylketone] | 10 | 30 | 50 | 10 | 50 | 90 | – | – | – | – |
| Cc1cccc2cc(C(=O)CCN3CCCCC3)ccc12 [Example 81, 2-piperidinoethyl-5-methyl-2-naphthylketone] | 0 | 10 | 40 | 0 | 10 | 30 | – | – | – | – |
| CC(C)N(CCC(=O)c1cccc2ccccc12)Cc1ccccc1 [Example 82, 1-(N-benzylisopropyl)aminoethyl-1-naphthylketone] | 0 | 0 | 20 | 50 | 70 | 100 | – | – | – | – |
| CC(C)N(CCC(=O)c1ccc2c(Cl)cccc2c1)Cc1ccccc1 [Example 84, 2-(N-isopropylbenzyl)aminoethyl-5-chloro-2-naphthylketone] | 20 | 30 | 70 | 90 | 100 | 100 | – | – | – | – |
| CC(C)N(CCC(=O)c1ccc(Oc2ccccc2)cc1)Cc1ccccc1 [Example 85, 2-(N-isopropylbenzyl)aminoethyl-4-phenoxyphenylketone] | 10 | 20 | 30 | 50 | 50 | 95 | – | – | – | – |
| CN(CCC(=O)c1ccc(Oc2ccccc2)cc1)Cc1ccccc1 [Example 86, 2-(N-methylbenzyl)aminoethyl-4-phenoxyphenylketone] | 0 | 20 | 50 | 30 | 70 | 95 | – | – | – | – |
| O=C(CCNCC(O)c1ccccc1)c1ccc(Oc2ccccc2)cc1 (stereo not drawn) [Example 87, 2-(N-2-hydroxy-2-phenylethyl)aminoethyl-4-phenoxyphenylketone] | 0 | 0 | 20 | 10 | 10 | 90 | – | – | – | – |
